{"source": "patent US11203563B2", "about": "“Preparation of zinc linolenate, and application of zinc linolenate in preparing anti-helicobacter pylori drug” (NANJING MEDICAL UNIVERSITY, priority 2018, dated 2021)", "key": {"[1]": {"assay": "Animal toxicity, 10 times the therapeutic dose", "method": "(1) Preparation of mice: 20 8-week-old C57BL/6 mice are randomly divided into an administration group containing 10 mice and a negative control group containing 10 mice.\n(2) Intragastric administration: administration is performed with 10 times the therapeutic dose of zinc linolenate, that is, administration is performed according to 240 mg/kg per mouse, once a day for 3 consecutive days. The negative control group is administered with a PBS solution, and the number of times and dose are same as those in the administration group.\n(3) Weighing of weight: the weight of mice is weighed 1 day before administration for 7 consecutive days.\n(4) Efficacy test: the mice in the infection group are weighed 3 days after the drug is stopped, and the average weight is calculated. Blood is taken from the eyeballs, and the mice are sacrificed by cervical dislocation. Stomach, kidney, liver and spleen tissues are taken, pathologically sectioned and HE stained, and serum is tested for liver and kidney functions."}, "AGS cells": {"test_system": "AGS cells", "method": "2.4.1 Cytotoxicity detection\n(1) Ges-1 and AGS cell suspensions are prepared, and the concentration is adjusted to 1×10^6.\n(2) Inoculation into a 96-well plate: 100 μL is added per well, and 3 replicates is performed for the same sample.\n(3) Culture is performed for 12 hours in an incubator at 37° C.\n(4) 10 μL of zinc linolenate, 10 μL of linolenic acid, and 10 μL of zinc chloride are added respectively, and the working concentrations are 400 μg/mL, 300 μg/mL, 200 μg/mL, 100 μg/mL, and 0 μg/mL, respectively. A group added with drugs and without cells and a PBS control group are set.\n(5) Culture is performed for 12 hours in an incubator at 37° C.\n(6) 10 μL of CCK-8 is added, mixed by tapping and incubated for 4 hours.\n(7) The absorbance at 450 nm is measured, and the survival rate is calculated according to the formula: cell proliferation rate[(As−Ab)]/[(Ac−Ab)]×100%, wherein As are wells containing the cell culture medium, drugs, and CCK-8; Ac are wells containing the cell culture medium, CCK-8, and no drug; and Ab are wells containing no cells and drugs, but only the culture medium and CCK-8. A survival curve is established based on the survival rate."}, "[2]": {"test_system": "25 kinds of non-Helicobacter pylori bacteria, including Staphylococcus aureus", "assay": "MIC by microdilution method, 25 kinds of non-Helicobacter pylori bacteria together", "type": "cell-based", "settings": "all 25 kinds of non-Helicobacter pylori bacteria, 72 h", "method": "2.2 Detection of minimum inhibitory concentration (MIC, 100 µL system) of zinc linolenate for non-Helicobacter pylori bacteria by microdilution method\n(1) Zinc linolenate (2 mg/mL) is prepared.\n(3) Bacterial solution preparation: the non-Helicobacter pylori grown in a log phase on a solid plate is taken to make a bacterial suspension with a BHI culture medium, the absorbance (OD600) is adjusted to 0.3 (1×10^8 CFU/mL), and the bacterial suspension is diluted 100 times to 1×10^6 CFU/mL for use.\n(4) Inoculation of bacterial solution: 10 μL of bacterial solution above is taken and added to the 1-8th wells (the concentration of the bacterial solution per well is about 1.0×10^5 CFU/mL). Culture is performed for 72 h to judge the result. The drug concentrations of the first-seventh wells are 128, 64, 32, 16, 8, 4, and 2 μg/mL, respectively.\nThe experiment only makes sense when the bacteria obviously grow in the 8th well, i.e. the positive control well (without antibiotics). When a single drift occurs in the microdilution method, the maximum drug concentration that inhibits bacterial growth should be recorded. If there are multiple drifts, the results should not be reported and the experiment should be repeated. The experiment is repeated 3 times for each drug."}}, "data": [{"smiles": "CC/C=C\\C/C=C\\C/C=C\\CCCCCCCC(=O)[O-].CC/C=C\\C/C=C\\C/C=C\\CCCCCCCC(=O)[O-].[Zn+2]", "note": "[zinc linolenate]", "values": [{"measurement": "weight of the mice", "setting": "[1]; 240 mg/kg (10 times the therapeutic dose), intragastric, once a day for 3 days, weighed 7 consecutive days", "value": "does not change significantly"}, {"measurement": "Alanine aminotransferase", "setting": "[1]; mouse, in vivo, 240 mg/kg", "value": 23.33, "unit": "U/L"}, {"measurement": "Aspartate aminotransferase", "setting": "[1]; mouse, in vivo, 240 mg/kg", "value": 138.33, "unit": "U/L"}, {"measurement": "Blood urea nitrogen", "setting": "[1]; mouse, in vivo, 240 mg/kg", "value": 11.90, "unit": "mmol/L"}, {"measurement": "Creatinine", "setting": "[1]; mouse, in vivo, 240 mg/kg", "value": 15.00, "unit": "µmol/L"}, {"measurement": "toxicity compared with linolenic acid", "setting": "AGS cells", "value": "smaller than that of linolenic acid"}, {"measurement": "MIC", "setting": "[2]", "value": "greater than or equal to 128 μg/mL"}]}]}
